# From US20160158381A1, “NOVEL NANOLIPOSOMES AND THEIR USE FOR THE TREATMENT OF AMYLOID PROTEIN DISEASES” (DEPARTMENT OF VETERANS AFFAIRS, TECHNOLOGY TRANSFER PROGRAM, priority 2013, published 2016)
# “Also recorded” adds a separate entry of the source.
# Key:
# Format in all cases: cell-based
# [1] = system: human ex-vivo adipose arterioles exposed to LC; assay: Arteriole vasoreactivity after LC exposure with or without NL; conditions: LC+NL co-treated with L-NAME 5 mmol
# Description: 9 male subjects (64±3 years old) without AL/diabetes/vascular disease undergoing routine abdominal surgery donated subcutaneous adipose tissue obtained by surgeons. Arterioles (˜[…]) were isolated, cannulated and pressurized (60 mmHg). Baseline/control vasoreactivity was performed following preconstriction with endothelin-1 (60% baseline diameter) and successive administration of acetylcholine (10-9-10-4M) to measure endothelium-dependent dilation and papaverine (10^-4M) to measure smooth-muscle dependent dilation (videomicrometer). After washing, vessels were exposed to LC (20 μg/mL, physiologic concentration of circulating LC in patients) with or without NL (1:10 LC:NL mass ratio) for 1 hour and a second vasoreactivity response performed. In additional arterioles, LC+NL were co-treated with L-NG-nitroarginine methyl ester (L-NAME, 5 mmol, Sigma-Aldrich).
# Data is expressed as means±standard error of means. Baseline control and post-treatment dilator response were compared using paired Student's t-test. Overall acetylcholine dilator response was analyzed by deriving the log effective concentration 50% (log EC50) using nonlinear regression and variable slope and least squares fit. For group analyses, one-way or two way analysis of variance with Bonferroni post-test were utilized (GraphPad Prism 5.0, San Diego Calif.).
# [2] = system: Human umbilical vein endothelial cells (HUVECs); assay: Endothelial cell nitric oxide production (DAF-2 diacetate fluorescence); conditions: 1 hour exposure, acetylcholine 10^-4M at 45 minutes
# Description: Human umbilical vein endothelial cells (HUVECs) were exposed to Aβ42±NLPA or control for 1-hour, acetylcholine (10^-4M) was administered at 45 minutes and nitric oxide (NO production) was measured using DAF-2 diacetate fluorescence (1 hour compared to baseline fluorescence).
# [3] = system: human abdominal subcutaneous adipose arterioles exposed to Aβ42; assay: Arteriole vasoreactivity after Aβ42 exposure with or without nanoliposomes; conditions: for dilator responses to acetylcholine and papaverine (endothelial function): Aβ42 2 μM with or without nanoliposomes (1:10 Aβ:NLPA mass ratio), one hour
# Description: Human abdominal subcutaneous arterioles were isolated from subjects without vascular disease, pressurized and constricted with endothelin-1. Baseline (control) dilation response was measured following acetylcholine (10_9-10-4M) and papaverine (10^-4M) exposure; after washing, arterioles were exposed to Aβ42 (2 μM)±nanoliposomes (NLPA, 70% cholesterol, 25% phosphatidylcholine, 5% phosphatidic acid, 1:10 Aβ:NLPA mass ratio) and dilator response was measured.
# [4] = system: human ex-vivo adipose arterioles exposed to soluble amyloid proteins (light chain); assay: Arteriole endothelial function after LC exposure with clusterin-incorporated nanoliposomes; conditions: separate experiments; nanoliposomes of cholesterol and phosphatidylcholine; co-treatment with light chain
# From the text: Nanoliposomes were composed of cholesterol, phosphatidylcholine and stearyl triphenylphosphonium (STTP) and clusterin was incorporated by noncovalent means.
compound,measurement,setting,value
"COC(=O)[C@@H](N)CCCNC(=N)N[N+](=O)[O-] [L-NAME, L-NG-nitroarginine methyl ester]",effect of L-NAME on NL protective effect (dilator response),[1],abolished NL protective effect; also recorded: Nanoliposome protective effect was reversed
"Aβ42: Aβ42 peptide, one of the amyloid proteins involved in AD",NO production,[2],reduced endothelial cell NO gas production
same,NO production,[2]; listed as Aβ,reduced
same,dilation to acetylcholine 10^−4M,"[3]; Aβ42 2 μM with or without NLPA, 1:10 Aβ:NLPA mass ratio",61.5±5.7%
same,dilator responses to acetylcholine and papaverine (endothelial function),[3],caused endothelial dysfunction
same,dilator responses to acetylcholine and papaverine (endothelial function),[3]; listed as Aβ,reduced
"free clusterin: free clusterin without nanoliposome; clusterin is apolipoprotein J, a chaperone protein",dilator response to acetylcholine versus baseline,[4],+3.1%
